Source: patent publication EP4582418A1, “CRYSTALLINE FORM OF QUINOLINE DERIVATIVE INHIBITOR, PREPARATION METHOD THEREFOR AND USE THEREOF” (TransThera Sciences (Nanjing), Inc., priority 2022, dated 2024)

Assay: Solubility in FaSSIF (pH 6.5) and FeSSIF (pH 5.0) buffer solutions
Assay type: physicochemical
Experimental: Test substances: the crystal forms I, II, III, and IV of the methanesulfonate of the compound of formula (I).
• 1) 0.42 g of NaOH, 3.44 g of anhydrous NaH2PO4, and 6.19 g of NaCl were dissolved in about 0.9 L of pure water; • 2) the pH was adjusted to 6.5 using 1 N NaOH or 1 N HCl, and the buffer solution was supplemented to the volume of 1 L with pure water at room temperature; • 3) 2.24 g of FaSSIF powder was added to about 0.5 L of the buffer solution, and the mixture was stirred until the powder was completely dissolved; the resulting solution was supplemented to the volume of 1 L with the buffer solution at room temperature, and after being left to stand for 2 h, it was ready for use.
• 1) 4.04 g of NaOH, 8.65 g of glacial acetic acid, and 11.87 g of NaCl were dissolved in about 0.9 L of pure water; • 2) the pH was adjusted to 5.0 using 1 N NaOH or 1 N HCl, and the buffer solution was supplemented to the volume of 1 L with pure water at room temperature; • 3) 11.2 g of FeSSIF powder was added to about 0.5 L of the buffer solution, and the mixture was stirred until the powder was completely dissolved; the resulting solution was supplemented to the volume of 1 L with the buffer solution at room temperature, and after being left to stand for 2 h, it was ready for use.
An appropriate amount of each test substance was placed into separate 10 mL PE tubes, and FaSSIF (pH 6.5) buffer solution and FeSSIF (pH 5.0) buffer solution, each 10 mL, were added into the tubes, respectively. The tubes were then placed in a constant temperature water bath shaker and shaken at 37 °C for 24 h. After 24 h, samples were collected and centrifuged. The supernatants were diluted, and the solubility of the supernatants was measured.

24-hour solubility in buffer solutions with different pH values pH6.5 (FaSSIF (pH 6.5), 37 °C, shaken 24 h): 0.052 mg/mL
24-hour solubility in buffer solutions with different pH values pH5.0 (FeSSIF (pH 5.0), 37 °C, shaken 24 h): 0.29 mg/mL
solubility compared with the compound of formula (I) (test solutions at pH 5.0 and pH 6.5): significantly improved
SMILES: COc1cc2nccc(Oc3ccc(NC(=O)c4nn(C(C)C)cc(-c5ccc(F)cc5)c4=O)nc3)c2cc1OC [Crystal form I, N-(5-((6,7-dimethoxyquinolin-4-yl)oxy)pyridin-2-yl)-5-(4-fluorophenyl)-1-isopropyl-4-oxo-1,4-dihydropyridazine-3-carboxamide]
